We go through five molecules from patent US7128897B2, “Aerosolized anti-infectives, anti-inflammatories, and decongestants for the treatment of sinusitis” (Naryx Pharma, Inc., priority 1999, dated 2006).

Data set [1] concerns sinusitis. Format: in vivo, human. Particulars: for efficacy of nose drop: nose drop (tobramycin 80 mg/ml; Mupirocin calcium 2%). As to the method: A person had been suffering from sinusitis for most of their adult life. These sinusitis episodes seemed to be triggered by allergies. They historically had three-four (3–4) episodes of sinusitis each year, which were treated with oral antibiotics for four-eight (4–8) weeks per episode. These oral antibiotic regimens produced yeast infections, which were treated with Diflucan® (fluconazole). Relief from the headaches, malaise, facial pressure and pain, yellow-green nasal discharge, coughing and fever took up to six weeks and were treated with narcotic and non narcotic analgesics, decongestants, decongestant nasal sprays, cough suppressants, and nasal rinses. Their allergies were treated with antihistamines and anti-inflammatory agents. In an effort to reduce the duration of their sinusitis episodes, a nose drop of tobramycin 80 mg/ml was administered. […] The medication was irritating; and in order to administer the drops and try to get them into the sinus cavity, the patient had to hold their head back. This caused intolerable pain resulting in the discontinuation of the therapy. A nose drop of Bactoban® (Mupirocin calcium 2%) was tried. […] In order to eliminate the pain caused by holding their head back when administering nose drops, a nose drop of tobramycin was administered after the patient had been on oral antibiotics for a period of time.

Data set [2] deals with paranasal sinusitis. Particulars: 4 ml of 3% FOM solution; ultrasonic-type nebulizer compared with jet-type; cited from earlier work.
Data set [3] deals with clinical isolates from sinusitis patients. Particulars: one percent (1%) solution used with a nebulizer; cited from earlier work.
Data set [4] relates to sinus infection. The data set can be described thus: Nebulized antibiotic treatment of sinusitis patients (case reports, Patients A, B, C). Format: in vivo, human. Particulars: for time to "dumping" of green, purulent nasal discharge: nebulized three times daily. As to the method:
Thereafter, a preparation of tobramycin 80 mg/ml was administered using 3 ml in a Pari LC Star® nebulizer cup with adult mask attached and a Pari Proneb® compressor. The medication was nebulized three (3) times daily. After four days of therapy, the patient experienced a “dumping” of green, purulent nasal discharge. The therapy was continued for a total of seven (7) days. […] Another seven (7) day regimen of nebulized tobramycin was given to the patient.
A preparation of cefuroxime 285 mg in 2.5 ml sterile water for injection was administered three (3) times daily using a Pari LC Star® nebulizer cup with adult mask attached and a Pari Proneb® compressor. […] After one day of therapy, a Pari Turbo® compressor was substituted for the Pari Proneb® compressor. The patient experienced a “dumping” of green, purulent nasal discharge after (3) days of therapy.
After the seven (7) days of treatment with nebulized cefuroxime using the Pari Turbo® compressor and the Pari LC Star® nebulizer cup with mask, the patient has remained free of sinus infections for nine (9) months. They have continued to experience problems with their allergies, and while in the past these allergies triggered sinus infections, this time no such infection has recurred.
A person had been experiencing sinus infections off and on during their adult life. They were treated with cefuroxime 285 mg in 2.5 ml of sterile water for injection three (3) times daily using a Pari LC Star® nebulizer cup with adult mask attached and a Pari Turbo® compressor. The patient experienced a “dumping” of green, purulent nasal discharge after eight (8) treatments. The therapy was continued for a total of seven (7) days. No other antibiotics were given. This patient has been free from sinus infections for six (6) months.
They were treated with cefuroxime 285 mg in 2.5 ml of sterile water for injection three (3) times daily using a Pari LC Star® nebulizer cup with adult mask attached and a Pari Turbo® compressor. The patient experienced a “dumping” of green, purulent nasal discharge after eight (8) treatments. The therapy was continued form a total of seven (7) days. No other antibiotics were given. This patient has been free from sinus infections for six (6) months.

Data set [5] concerns refractory sinusitis. Particulars: large particle saline aerosol therapy with tobramycin added; cited from earlier work.
[6] abbreviates: Patient A, second 7 day regimen of nebulized tobramycin.

With `C/C(=C\C(=O)OCCCCCCCCC(=O)[O-])C[C@@H]1OC[C@H](C[C@@H]2O[C@H]2[C@@H](C)[C@H](C)O)[C@@H](O)[C@H]1O.C/C(=C\C(=O)OCCCCCCCCC(=O)[O-])C[C@@H]1OC[C@H](C[C@@H]2O[C@H]2[C@@H](C)[C@H](C)O)[C@@H](O)[C@H]1O.O.O.[Ca+2]` [Bactoban, Mupirocin calcium], the “efficacy of nose drop” value in data set [1] (Patient A) is recorded as “not efficacious”.

Take `C[C@@H]1O[C@@H]1P(=O)(O)O` [FOM, fosfomycin]: in data set [2], the “delivery to maxillary sinus surface, ultrasonic-type vs jet-type nebulizer” value is “higher concentration of FOM to the maxillary sinus surface”.

Consider `CO/N=C(\C(=O)N[C@@H]1C(=O)N2C(C(=O)O)=C(CSc3nnnn3C)CS[C@H]12)c1csc(N)n1` [cefmenoxime], for which, in data set [3], the minimum inhibitory concentrations result is on record as “minimum inhibitory concentrations were lower”.

Consider `CO/N=C(\C(=O)N[C@@H]1C(=O)N2C(C(=O)O)=C(COC(N)=O)CS[C@H]12)c1ccco1` [cefuroxime, Cefuroxime], for which, in data set [4] (Patient A, 285 mg in 2.5 ml nebulized three times daily, 7 days), the “adverse event during nebulized therapy” value is “contracted a yeast infection”. Moreover, the “time free of sinus infections after treatment” value in data set [4] (Patient A, 285 mg in 2.5 ml nebulized three times daily, 7 days, Pari Turbo compressor) is 9 months. The “time to "dumping" of green, purulent nasal discharge” value in data set [4] (Patient A) turned out to be 3 days. The “number of treatments until "dumping" of green, purulent nasal discharge” value in data set [4] (Patient B, 285 mg in 2.5 ml nebulized three times daily) is on record as 8 treatments; in data set [4] (Patient C, 285 mg in 2.5 ml nebulized three times daily) it was 8 treatments. Further, the “time free from sinus infections after treatment” value is 6 months in data set [4] (Patient B, 285 mg in 2.5 ml nebulized three times daily, 7 days) and 6 months in data set [4] (Patient C, 285 mg in 2.5 ml nebulized three times daily, 7 days).

Regarding `NC[C@H]1O[C@H](O[C@H]2[C@H](O)[C@@H](O[C@H]3O[C@H](CO)[C@@H](O)[C@H](N)[C@H]3O)[C@H](N)C[C@@H]2N)[C@H](N)C[C@@H]1O` [tobramycin, Tobramycin], in data set [4] (Patient A, first 7 day regimen of nebulized tobramycin), the “relapse after first seven day regimen” value was “relapse was experienced within a month”. The “time to "dumping" of green, purulent nasal discharge” value in data set [4] (Patient A) is “four”. In addition, in data set [4] (setting [6]), the “outcome after second seven day regimen” value was “sinus infection seemed to be eliminated” and the “time to recurrence after second seven day regimen” value is recorded as ≤ 2 months. The “outcome after first seven day regimen” value in data set [4] (Patient A, tobramycin 80 mg/ml, 3 ml nebulized three times daily, 7 days) is recorded as “sinus infection had been eliminated”. The “efficacy of nose drop” value in data set [1] (Patient A) is “did not seem to work”. Also, in data set [1] (Patient A, nose drop after a period on oral antibiotics), the “efficacy of nose drop given after oral antibiotics” value is recorded as “did not seem to work”. Also, the “tolerability of nose drop” value in data set [1] (human, in vivo) is “irritating”. In addition, in data set [5], the “benefit of addition to saline aerosol” value is recorded as “minimal benefit”.
